Data taken from patent US11248022B2, “Glypican-3 peptide reagents and methods” (THE REGENTS OF THE UNIVERSITY OF MICHIGAN, priority 2017, dated 2022).
Ends that are not written are not given here.

Columns and labels:
[1] = test system: human HBV-derived HCC; assay: Immunofluorescence on human HBV-derived HCC specimens; details: 5 μM, 15 min
Method: Formalin-fixed specimens of HBV-derived HCC from the bio-bank at the Peking University People's Hospital were used. The specimens were deparaffinized, and antigen retrieval was performed using standard methods. Specimens of HCC and non-tumorous liver were cut in 10 μm sections, and incubated with the ALL*-Cy5.5 peptide reagent at a concentration of 5 μM in 1× PBS for 15 min at RT. The sections were washed 3× with PBS and incubated overnight at 4° C. with a 1:1000 dilution of primary anti-GPC3 antibody (Santa Cruz Biotechnology, 1G12, sc-65443) overnight at 4° C. The sections were washed with PBS 3× and incubated with 1:500 dilution of Alexa Fluor 488-labeled secondary goat […] antibody (Invitrogen) for 1 hour at RT. The sections were fixed with 4% PFA for 10 min. The sections were then mounted with ProLong Gold reagent containing DAPI (Invitrogen). Confocal fluorescence images were collected with DAPI, FITC and Cy5.5 filters. A Pearson's correlation coefficient will be measured to assess co-localization of peptide and antibody binding.

[2] = test system: Hep3B xenograft; assay: In vivo NIR laparoscopic imaging of HCC xenograft tumors; set-up: species or system mice
Method: Human HCC cells Hep3B and SK-Hep1 were cultured in Eagle's Minimum Essential Medium (EMEM) at 37° C. in 5% CO2, and supplemented with 10% fetal bovine serum (FBS) and 1% penicillin/streptomycin. Western blotting was performed to validate expression level of GPC3. Cells were diluted in growth factor reduced (GFR) Matrigel Matrix (Corning), and injected into one flank of female (to avoid male dominance within a cage) nude athymic mice (nu/nu, Jackson Laboratory) at 4 to 6 weeks of age with weight between 20 to 25 grams. ˜5×10^6 cells were implanted per mouse.
A standard surgical laparoscope (#49003 AA, HOPKINS® II Straight Forward Telescope 0°, Karl Storz) that is ˜10 mm in diameter and has a 31 cm length rigid sheath was adapted to collect reflectance and fluorescence concurrently. Nude mice with human HCC xenograft 2 weeks post implantation were tail vein injected with 200 μL 300 μM GPC3 peptide ALL*-Cy5.5. During imaging, the mice were anesthetized with inhaled isoflurane. We first used laparoscope with white light illumination to exam the xenograft. Laparoscopic images were taken two hours post injection in both fluorescence and reflection mode simultaneously with excitation solid state diode laser (660-S, Toptica Photonics) to deliver excitation at λex=660 nm into the fiber optic light guide. Images were collected at 5 frames/sec with a laser power of 1.2 mW. Hoechst 33342 (H1399, Life Technologies) at a dose of 10 mg/kg diluted in 200 μL of PBS was delivered intravenously via a tail vein injection to stain the cell nuclei 30 minutes before sacrificing the mouse. Xenograft tumors were resected and confocal fluorescence images were collected with Cy5.5 and DAPI filters 50 μm beneath the surface using a confocal microscope (Leica SPSX Upright 2-Photon Confocal Microscope). Following imaging, resected xenografts were fixed and formalin embedded for immunohistochemistry and H&E staining as described previously.
Fluorescence images of mouse HCC xenograft taken at 2 hrs post peptide injection were registered with corresponding reflectance images taken simultaneously. The fluorescence intensity of each pixel in the image was divided by intensity of corresponding pixel in the reflectance image in order to account for the difference in distance between each pixel and the laser source. A heat map image was generated from the resulting ratios at each pixel. Image segmentation was performed automatically by custom Matlab (Mathworks) software program using Ostu's Method [Otsu, Automatica, 11(285-296): 23-27 (1975)]. Target to background ratio of each processed image was calculated by dividing the average intensity of pixels inside the segmented tumor and that of those within 30 pixels outside of segmentation outline.

[3] = test system: Hep3B xenograft tumors; assay: Ex vivo confocal validation on Hep3B xenograft sections and normal liver; set-up: species or system mice
Source text: The specimens were also sectioned for collection of confocal images to perform microscopic validation of peptide binding ex vivo.

[4] = test system: Hep3B human HCC cells; assay: Confocal microscopy of peptide binding to Hep3B cells; type: cell-based
Method: (§1) FIGS. 6-2A-Q show validation of specific peptide binding to cells in vitro. […] The Hep3B versus SK-Hep1 difference was also larger for antibody than QLE (P=2.3×10^−8, 6.0-fold larger). Intensity was measured with 6 replicates per condition and fitted to an ANOVA model with terms for 9 means to log-transformed data. […] We further validated specific peptide binding to GPC3 using siRNA knockdown. […] Q) Quantified fluorescence intensities. The siCL vs siGPC3 difference was 7.4 times bigger for ALL than the same difference for QLE (P=7.8×10^−5), and the difference for antibody was 8.9 times bigger than for QLE (P=2.5×10^−5), by ANOVA on log-transformed data. Results are an average of 6 images collected independently.
On confocal microscopy, it was shown that ALL*-Cy5.5 binds to the surface (arrows) of cells with different levels of GPC3 expression. […] GPC3 is highly overexpressed in Hep3B cell cytosol and membrane while moderately expressed in HepG2 cells. No GPC3 expression is observed in SK-Hep1 cells. Tubulin serves as loading control for either cytosol or membrane fractions loaded.

[5] = molecular target: T1, GPC3 (Homo sapiens, UniProt P51654); assay: siRNA knockdown of GPC3 in Hep3B cells, confocal fluorescence; type: cell-based
T1 construct: endogenous in cells; host or cells: Hep3B human HCC cells (siCL control vs siGPC3 knockdown); also HepG2; SK-Hep1 as GPC3-negative control
T1 sequence (P51654 25-554): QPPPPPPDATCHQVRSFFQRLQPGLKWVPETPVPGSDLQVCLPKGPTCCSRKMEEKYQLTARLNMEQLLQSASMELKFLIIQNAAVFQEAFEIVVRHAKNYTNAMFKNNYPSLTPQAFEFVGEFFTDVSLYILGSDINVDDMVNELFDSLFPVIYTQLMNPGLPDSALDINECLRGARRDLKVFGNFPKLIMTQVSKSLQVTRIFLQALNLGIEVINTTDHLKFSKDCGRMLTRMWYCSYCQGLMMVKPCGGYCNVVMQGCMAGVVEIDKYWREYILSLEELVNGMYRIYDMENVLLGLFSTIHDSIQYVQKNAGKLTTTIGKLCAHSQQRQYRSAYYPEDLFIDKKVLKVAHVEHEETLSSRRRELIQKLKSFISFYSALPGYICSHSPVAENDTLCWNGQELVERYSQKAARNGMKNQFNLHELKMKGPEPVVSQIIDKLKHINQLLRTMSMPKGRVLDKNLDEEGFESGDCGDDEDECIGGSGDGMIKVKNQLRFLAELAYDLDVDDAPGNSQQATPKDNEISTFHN
Method: as §1
The specificity of lead candidate peptide reagent binding was validated by siRNA knockdown of GPC3 in human HCC cells. The cells were transfected with siRNA to knockdown cell surface expression of GPC3. […] These cells were transfected with non-targeting siRNA (siCL) for use as control. […] FIG. 6-1D,E show ˜4-fold reduction in fluorescence intensity with both the peptide reagent and anti-GPC3 antibody, respectively, for Hep3B cells transfected with siRNA (siGPC3) to knock down GPC3 expression. […] FIG. 6-2M, N, O and P show the same result as original FIG. 6-1A, B, D and E.

ALLANHEELFQT (SEQ ID NO: 1) peptide labeled with Cy5.5 via a GGGSK linker on the C-terminus (ALLANHEELFQTGGGSK-{Cy5.5}) [ALL*-Cy5.5]
binding to section of HBV-derived HCC on immunofluorescence [1]: strong binding
staining of cell surface on excised tumor xenograft (confocal) ([2]; 40× magnification): intense staining
T/B ratio relative to QLE*-Cy5.5 ([2]; NIR laparoscope, 2 hours): 2.8 fold
target-to-background (T/B) ratio ([2]; NIR laparoscope, 2 hours after i.v. injection, n=8): 8.3±1.3
cell surface staining of xenograft sections ([3]; Hep3B xenograft sections, compared with QLE*-Cy5.5): increased cell surface staining
intensity from peptide binding, HCC vs normal ([3]; n=26): 2.22 fold
staining of normal mouse liver ([3]; normal mouse liver sections): Minimal staining
intensity difference Hep3B vs SK-Hep1 relative to the same difference for QLE* ([4]; 6 replicates, log-transformed data): 8.2 fold
fluorescence intensity from binding to cell surface ([4]; Hep3B cells, confocal microscopy): strong fluorescence intensity
siCL vs siGPC3 difference relative to the same difference for QLE ([5]; ANOVA on log-transformed data): 7.4 times
fluorescence intensity remaining (% of siCL control) ([5]; GPC3 knockdown cells): 27%
binding to cell surface ([5]; Hep3B cells transfected with non-targeting siRNA (siCL)): strong binding
reduction in fluorescence intensity ([5]; Hep3B cells transfected with siGPC3 vs siCL): ~4 fold
fluorescence intensity ([5]; siCL treated Hep3B control cells): 54.3±6.0
fluorescence intensity ([5]; siGPC3 knockdown Hep3B cells): 14.7±1.5
